Experimental data as given in ChEMBL document CHEMBL1177764, “Exploration of potential prodrug approach of the bis-thiazolium salts T3 and T4 for orally delivered antimalarials” (Bioorg Med Chem Lett, 2010).

Legend:
Plasmodium vinckei [1] = assay: Antimalarial activity against Plasmodium vinckei infected in perorally dosed mice (Mus musculus); type: functional; conditions: po
Plasmodium vinckei [2] = assay: Antimalarial activity against Plasmodium vinckei infected in intraperitoneally dosed mice (Mus musculus); type: functional; conditions: ip
Plasmodium falciparum = assay: Antiplasmodial activity against Plasmodium falciparum; type: functional, organism-based

Row | IC50 (Plasmodium falciparum) | Structure (SMILES) | ED50 (Plasmodium vinckei [1]) | ED50 (Plasmodium vinckei [2])
1 | 2.3 nM | COCC/C(SC(=O)COC)=C(\C)N(C=O)CCCCCCCCCCCCN(C=O)/C(C)=C(/CCOC)SC(=O)COC | 80 mg/kg | 1.9 mg/kg
2 | 6.2 nM | COCC/C(SC(=O)OC(C)C)=C(\C)N(C=O)CCCCCCCCCCCCN(C=O)/C(C)=C(/CCOC)SC(=O)OC(C)C | 6.8 mg/kg | < 0.1 mg/kg
3 | – | Cc1c(CCO)sc[n+]1CCCCCCCCCCCC[n+]1csc(CCO)c1C.[Br-].[Br-] [ALBITIAZOLIUM BROMIDE] | 13 mg/kg | 0.2 mg/kg
4 | 2.1 nM | COCC/C(SC(=O)c1cccnc1)=C(\C)N(C=O)CCCCCCCCCCCCN(C=O)/C(C)=C(/CCOC)SC(=O)c1cccnc1 | < 30 mg/kg | –
5 | – | COCCc1sc[n+](CCCCCCCCCCCC[n+]2csc(CCOC)c2C)c1C.[Br-].[Br-] | 8.1 mg/kg | 0.14 mg/kg
6 | 1.85 nM | COCC/C(SC(=O)OC)=C(\C)N(C=O)CCCCCCCCCCCCN(C=O)/C(C)=C(/CCOC)SC(=O)OC | 1.3 mg/kg | 0.072 mg/kg
7 | 5.6 nM | CCCCOC(=O)S/C(CCOC)=C(/C)N(C=O)CCCCCCCCCCCCN(C=O)/C(C)=C(/CCOC)SC(=O)OCCCC | 16 mg/kg | –
8 | 2.2 nM | C/C(=C1\CCOC(=O)S1)N(C=O)CCCCCCCCCCCCN(C=O)/C(C)=C1/CCOC(=O)S1 | 5 mg/kg | 0.25 mg/kg
9 | 2.8 nM | COCC/C(SC(=O)C1CCCN1)=C(\C)N(C=O)CCCCCCCCCCCCN(C=O)/C(C)=C(/CCOC)SC(=O)C1CCCN1 (centres undefined) | 17 mg/kg | –
10 | 110 nM | COCC/C(SC(=O)c1ccccc1C)=C(\C)N(C=O)CCCCCCCCCCCCN(C=O)/C(C)=C(/CCOC)SC(=O)c1ccccc1C | 24 mg/kg | 0.25 mg/kg
11 | 1.1 nM | COCC/C(SC(C)=O)=C(\C)N(C=O)CCCCCCCCCCCCN(C=O)/C(C)=C(/CCOC)SC(C)=O | – | –
12 | 1.1 nM | COCC/C(SC(=O)C(C)C)=C(\C)N(C=O)CCCCCCCCCCCCN(C=O)/C(C)=C(/CCOC)SC(=O)C(C)C | 11 mg/kg | 0.12 mg/kg
13 | 3.1 nM | COCC/C(SC(=O)Oc1ccc([N+](=O)[O-])cc1)=C(\C)N(C=O)CCCCCCCCCCCCN(C=O)/C(C)=C(/CCOC)SC(=O)Oc1ccc([N+](=O)[O-])cc1 | > 30 mg/kg | –
14 | 2200 nM | COCC/C(SC(=O)c1ccccc1C(F)(F)F)=C(\C)N(C=O)CCCCCCCCCCCCN(C=O)/C(C)=C(/CCOC)SC(=O)c1ccccc1C(F)(F)F | > 90 mg/kg | > 2.5 mg/kg
15 | 1.6 nM | COCC/C(SC(=O)Cc1ccco1)=C(\C)N(C=O)CCCCCCCCCCCCN(C=O)/C(C)=C(/CCOC)SC(=O)Cc1ccco1 | 14 mg/kg | –
16 | 10.6 nM | COCC/C(SC(=O)OC(C)Cl)=C(\C)N(C=O)CCCCCCCCCCCCN(C=O)/C(C)=C(/CCOC)SC(=O)OC(C)Cl (centres undefined) | 13 mg/kg | 0.11 mg/kg
17 | 2.7 nM | COCC/C(SC(=O)OCCBr)=C(\C)N(C=O)CCCCCCCCCCCCN(C=O)/C(C)=C(/CCOC)SC(=O)OCCBr | 13 mg/kg | –
18 | 6.7 nM | COCC/C(SC(=O)C(C)(C)C)=C(\C)N(C=O)CCCCCCCCCCCCN(C=O)/C(C)=C(/CCOC)SC(=O)C(C)(C)C | – | –
19 | 29.5 nM | COCC/C(SC(=O)N1CCCC1=O)=C(\C)N(C=O)CCCCCCCCCCCCN(C=O)/C(C)=C(/CCOC)SC(=O)N1CCCC1=O | 12 mg/kg | 0.9 mg/kg
20 | 1.6 nM | COCC/C(SC(=O)CCC(C)=O)=C(\C)N(C=O)CCCCCCCCCCCCN(C=O)/C(C)=C(/CCOC)SC(=O)CCC(C)=O | 3 mg/kg | 0.15 mg/kg

Row | IC50 (Plasmodium falciparum) | Structure (SMILES) | ED50 (Plasmodium vinckei [1]) | ED50 (Plasmodium vinckei [2])
21 | 3.3 nM | C/C=C/CC(=O)S/C(CCOC)=C(/C)N(C=O)CCCCCCCCCCCCN(C=O)/C(C)=C(/CCOC)SC(=O)C/C=C/C | 16 mg/kg | –
22 | 4.3 nM | CCC(=O)S/C(CCOC)=C(/C)N(C=O)CCCCCCCCCCCCN(C=O)/C(C)=C(/CCOC)SC(=O)CC | 12 mg/kg | < 0.1 mg/kg
23 | 15.6 nM | COCC/C(SC(=O)C(C)(C)OC(C)=O)=C(\C)N(C=O)CCCCCCCCCCCCN(C=O)/C(C)=C(/CCOC)SC(=O)C(C)(C)OC(C)=O | 57 mg/kg | 60.3 mg/kg
24 | 2.2 nM | COCC/C(SC(=O)OCCF)=C(\C)N(C=O)CCCCCCCCCCCCN(C=O)/C(C)=C(/CCOC)SC(=O)OCCF | 3.8 mg/kg | 0.1 mg/kg
25 | 4400 nM | C/C(=C1\CCOC(=S)S1)N(C=O)CCCCCCCCCCCCN(C=O)/C(C)=C1/CCOC(=S)S1 | > 30 mg/kg | –
26 | 16.5 nM | COc1ccc(C(=O)OCC/C(SC(=O)c2ccc(OC)c(OC)c2OC)=C(\C)N(C=O)CCCCCCCCCCCCN(C=O)/C(C)=C(/CCOC(=O)c2ccc(OC)c(OC)c2OC)SC(=O)c2ccc(OC)c(OC)c2OC)c(OC)c1OC | > 60 mg/kg | 1.8 mg/kg
27 | 3500 nM | C/C(=C(\CCOC(=O)c1ccccc1C)SC(=O)c1ccccc1C)N(C=O)CCCCCCCCCCCCN(C=O)/C(C)=C(/CCOC(=O)c1ccccc1C)SC(=O)c1ccccc1C | > 180 mg/kg | > 20 mg/kg
28 | 48 nM | COC(=O)CCC(=O)OCC/C(SC(=O)CCC(=O)OC)=C(\C)N(C=O)CCCCCCCCCCCCN(C=O)/C(C)=C(/CCOC(=O)CCC(=O)OC)SC(=O)CCC(=O)OC | 13 mg/kg | 0.5 mg/kg
29 | 5.9 nM | COCC/C(SC(=O)CCC(=O)OC)=C(\C)N(C=O)CCCCCCCCCCCCN(C=O)/C(C)=C(/CCOC)SC(=O)CCC(=O)OC | 10 mg/kg | 0.4 mg/kg
30 | 1.7 nM | COCC/C(SC(=O)c1ccccc1)=C(\C)N(C=O)CCCCCCCCCCCCN(C=O)/C(C)=C(/CCOC)SC(=O)c1ccccc1 | 15 mg/kg | < 0.5 mg/kg
31 | 310 nM | COCC/C(SC(=O)N1CCCC1)=C(\C)N(C=O)CCCCCCCCCCCCN(C=O)/C(C)=C(/CCOC)SC(=O)N1CCCC1 | > 90 mg/kg | > 5 mg/kg
32 | 2.9 nM | CCOC(=O)S/C(CCOC)=C(/C)N(C=O)CCCCCCCCCCCCN(C=O)/C(C)=C(/CCOC)SC(=O)OCC | 6.3 mg/kg | 0.21 mg/kg
33 | 1.5 nM | COCC/C(SC(=O)c1ccc(CN2CCOCC2)cc1)=C(\C)N(C=O)CCCCCCCCCCCCN(C=O)/C(C)=C(/CCOC)SC(=O)c1ccc(CN2CCOCC2)cc1 | 90 mg/kg | 3.4 mg/kg
34 | 7 nM | C/C(=C(\CCOC(=O)C(C)C)SC(=O)C(C)C)N(C=O)CCCCCCCCCCCCN(C=O)/C(C)=C(/CCOC(=O)C(C)C)SC(=O)C(C)C | 60 mg/kg | 1.2 mg/kg
35 | 2 nM | COCC/C(SC(=O)C1CC1)=C(\C)N(C=O)CCCCCCCCCCCCN(C=O)/C(C)=C(/CCOC)SC(=O)C1CC1 | 16 mg/kg | –
36 | 8.2 nM | COCC/C(SC(=O)C1CCCC1)=C(\C)N(C=O)CCCCCCCCCCCCN(C=O)/C(C)=C(/CCOC)SC(=O)C1CCCC1 | 17 mg/kg | 0.65 mg/kg
37 | 2.4 nM | COCC/C(SC(=O)CC(C)C)=C(\C)N(C=O)CCCCCCCCCCCCN(C=O)/C(C)=C(/CCOC)SC(=O)CC(C)C | 16 mg/kg | –
38 | 3.5 nM | COCC/C(SC(=O)Oc1ccccc1)=C(\C)N(C=O)CCCCCCCCCCCCN(C=O)/C(C)=C(/CCOC)SC(=O)Oc1ccccc1 | 24 mg/kg | 0.3 mg/kg
39 | 3.6 nM | COCC/C(SC(=O)C1CCC1)=C(\C)N(C=O)CCCCCCCCCCCCN(C=O)/C(C)=C(/CCOC)SC(=O)C1CCC1 | – | –
